Reference: US7858621B2 (Amorepacific Corporation, priority 2006, dated 2010)
Like-named read-outs stand apart in the source and are kept apart here.

What was measured:
vanilloid receptor = target: T1, vanilloid receptor (Rattus norvegicus, UniProt O35433); experiment: 45Ca influx test in cultured neonatal rat DRG neurons, inhibition of capsaicin response; type: cell-based
T1 construct: DRG nerve cells from the primary culture of 2 days were equilibrated; endogenous in cells; host or cells: primary culture of dorsal root ganglion neurons from neonatal SD rats
T1 sequence (O35433 whole entry): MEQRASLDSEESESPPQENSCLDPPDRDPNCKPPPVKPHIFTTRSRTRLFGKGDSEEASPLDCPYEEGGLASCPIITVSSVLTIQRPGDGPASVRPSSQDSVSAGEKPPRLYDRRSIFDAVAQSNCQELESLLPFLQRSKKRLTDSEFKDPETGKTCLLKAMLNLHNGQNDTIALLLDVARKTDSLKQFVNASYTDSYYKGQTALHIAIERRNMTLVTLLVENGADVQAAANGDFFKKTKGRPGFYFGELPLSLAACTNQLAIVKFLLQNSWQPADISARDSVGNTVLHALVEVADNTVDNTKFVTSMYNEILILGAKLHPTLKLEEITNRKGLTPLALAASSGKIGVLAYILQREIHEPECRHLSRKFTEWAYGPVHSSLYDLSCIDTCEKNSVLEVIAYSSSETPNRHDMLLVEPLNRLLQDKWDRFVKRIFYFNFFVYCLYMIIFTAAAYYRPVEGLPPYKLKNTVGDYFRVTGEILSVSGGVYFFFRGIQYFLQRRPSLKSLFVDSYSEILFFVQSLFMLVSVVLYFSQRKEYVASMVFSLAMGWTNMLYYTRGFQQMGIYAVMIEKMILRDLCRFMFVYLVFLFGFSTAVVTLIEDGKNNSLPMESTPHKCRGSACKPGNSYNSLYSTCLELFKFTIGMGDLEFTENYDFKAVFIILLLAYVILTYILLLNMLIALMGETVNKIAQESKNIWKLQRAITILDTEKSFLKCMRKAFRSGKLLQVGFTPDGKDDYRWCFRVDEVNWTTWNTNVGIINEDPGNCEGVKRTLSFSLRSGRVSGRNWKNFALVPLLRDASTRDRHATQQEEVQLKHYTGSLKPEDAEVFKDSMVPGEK
Outline: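 45Ca influx measured by scintillation counting of SDS-eluted neurons after 10 min at room temperature with test compound, 0.5 μM capsaicin (final) and 10 μCi/ml 45Ca in Ca/Mg-free HEPES-HBSS pH 7.4. Cells: primary DRG neurons from newborn SD rats, cultured 2 days with NGF and Ara-C.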

[1] = Metabolic stability test in rat liver microsomes; type: in vitro ADME; settings: 5 μg/mL, 0.5 mg/mL protein, 30 min incubation
Method: (§1) 1) Metabolic Stability Test
(§2) Diluted sample (final 5 μg/mL in 0.1 M potassium phosphate buffer, pH 7.4) was pre-incubated with cofactors (glucose-6-phosphate 3.3 mM, NADPH 1.3 mM, MgCl2 0.16 mM, glucose-6-phosphate dehydrogenase 0.4 U/mL final) and enzyme reaction was initiated with the addition of human intestinal (1 mg/mL protein) or rat liver microsomes (0.5 mg/mL protein). Reaction was terminated with 2× volume of cold acetonitrile after 1 min (initial point) or 30 min (reacted sample) incubation. In case of human intestinal microsomes, 2 hr reaction time was employed. Reaction mixture was undergone extraction in shaking bath over 20 min, after which resultant supernatant was separated by centrifugation. Area of parent compound peak was analyzed in the supernatant using HPLC-UV method and the extent of metabolism was shown as the decreased compound peak area (%) from initial point.

[2] = Metabolic stability test in human intestinal microsomes; type: in vitro ADME; settings: 5 μg/mL, 1 mg/mL protein, 2 hr reaction time
Method: as §1, §2

[3] = PK study in rats, single oral administration; type: in vivo; parameters: AUC: concentration or dose not given beside the values; settings: rat, plasma
Method: Pharmacokinetics of compounds in rats were analyzed using the following experiment. Rats were fasted overnight prior to administration and until approximately 4 hours after administration. Rats were given a single oral administration of compound at same dose. Administration volume was 10 ml/kg. Blood samples were collected from the retro-orbital sinus at various times over the following 7 hrs. Immediately after each collection, plasmas were separated from blood cells by centrifugation and stored at −20° C. until the analysis was performed. The plasma samples were analyzed using a reverse phase high-performance chromatography (HPLC) method.

[4] = neonatal rat DRG neurons, capsaicin 0.5 μM, 45Ca influx, read-out: Antagonist Calcium Uptake Test (IC50)
[5] = Table 3, unit inferred, read-out: IC50

IC50 (vanilloid receptor; [4]) | Stability RLM (% metabolized in rat liver microsomes) [1] | Stability HIM (% metabolized in human intestinal microsomes) [2] | Cmax [3] | SMILES | further results
87 nM | 2.7% | 1.6% |  | CCCCNc1nc(C(F)(F)F)ccc1/C=C/C(=O)NCc1cc(C)c(NS(C)(=O)=O)c(F)c1 [Example 188, N-(3-Fluoro-4-methanesulfonylamino-5-methyl-benzyl)-3-(2-butylamino-6-trifluoromethyl-pyridin-3-yl)-acrylamide] | 
260 nM | 11.7% | 12.0% | 723 ng/mL | C#Cc1cc(CNC(=O)/C=C/c2ccc(C(F)(F)F)nc2N2CCOCC2)cc(F)c1NS(C)(=O)=O [Example 12, N-(3-Ethynyl-5-fluoro-4-methanesulfonylamino-benzyl)-3-(2-morpholin-4-yl-6-trifluoromethyl-pyridin-3-yl)-acrylamide] | AUC [3]: 3240 ng·h/mL; Tmax [3]: 2.38 h; half-life [3]: 1.7 h
 |  |  | < 100 ng/mL | C=Cc1cc(CNC(=O)/C=C/c2ccc(C(C)(C)C)cc2)cc(F)c1NS(C)(=O)=O [Examples 16] | IC50 (vanilloid receptor; [5]): 47 nM
96 nM | 17.1% | 17.1% |  | C#Cc1cc(CNC(=O)/C=C/c2ccc(C(F)(F)F)nc2OC)cc(F)c1NS(C)(=O)=O [Example 42, N-(3-Ethynyl-5-fluoro-4-methanesulfonylamino-benzyl)-3-(2-methoxy-6-trifluoromethyl-pyridin-3-yl)-acrylamide] | 
 |  |  | < 100 ng/mL | C=Cc1cc(CNC(=O)/C=C/c2ccc(C(C)(C)C)cc2N2CCOCC2)cc(F)c1NS(C)(=O)=O [Examples 22] | 
> 10000 nM |  |  | 2200 ng/mL | C#Cc1cc(CNC(=O)/C=C/c2ccc(C(F)(F)F)nc2)cc(F)c1NS(C)(=O)=O [Example 57, N-(3-Ethynyl-5-fluoro-4-methanesulfonylamino-benzyl)-3-(6-trifluoromethyl-pyridin-3-yl)-acrylamide] | IC50 (vanilloid receptor; [5]): > 10000 nM; AUC [3]: 56500 ng·h/mL; Tmax [3]: 0.833 h; half-life [3]: 3.95 h
40 nM |  |  | 5500 ng/mL | C#Cc1cc(CNC(=O)/C=C/c2ccc(C(F)(F)F)nc2CCC)cc(F)c1NS(C)(=O)=O [Example 206, N-(3-Ethynyl-5-fluoro-4-methanesulfonylamino-benzyl)-3-(2-propyl-6-trifluoromethyl-pyridin-3-yl)-acrylamide] | AUC [3]: 25900 ng·h/mL; Tmax [3]: 3.5 h; half-life [3]: 1.42 h
 |  |  | < 100 ng/mL | C=Cc1cc(CNC(=O)/C=C/c2ccc(C(C)(C)C)cc2NC(C)C)cc(F)c1NS(C)(=O)=O [Examples 34] | 
49 nM | 0% | 0% |  | CCCNc1nc(C(F)(F)F)ccc1/C=C/C(=O)NCc1cc(F)c(NS(C)(=O)=O)c(F)c1 [Example 222, N-(3,5-Difluoro-4-methanesulfonylamino-benzyl)-3-(2-propylamino-6-trifluoromethyl-pyridin-3-yl)-acrylamide] | 
89 nM | 15.3% | 14.0% |  | C#Cc1cc(CNC(=O)/C=C/c2ccc(C(F)(F)F)nc2NCCOC)cc(F)c1NS(C)(=O)=O [Example 65, N-(3-Ethynyl-5-fluoro-4-methanesulfonylamino-benzyl)-3-[2-(2-methoxy-ethylamino)-6-trifluoromethyl-pyridin-3-yl]-acrylamide] | 
69 nM | 3.4% | 0% | 2530 ng/mL | C#Cc1cc(CNC(=O)/C=C/c2ccc(C(F)(F)F)nc2NC(C)C)cc(F)c1NS(C)(=O)=O [Example 100, N-(3-Ethynyl-5-fluoro-4-methanesulfonylamino-benzyl)-3-(2-isopropylamino-6-trifluoromethyl-pyridin-3-yl)-acrylamide] | AUC [3]: 17400 ng·h/mL; Tmax [3]: 3 h; half-life [3]: 3.21 h
220 nM | 0.5% | 0% | 215 ng/mL | C=Cc1cc(CNC(=O)/C=C/c2ccc(C(F)(F)F)nc2N2CCOCC2)cc(F)c1NS(C)(=O)=O [Example 281, N-(3-Ethenyl-5-fluoro-4-methanesulfonylamino-benzyl)-3-(2-morpholin-1-yl-6-trifluoromethyl-pyridin-3-yl)-acrylamide] | AUC [3]: 654 ng·h/mL; Tmax [3]: 2 h; half-life [3]: 1.26 h
 |  |  | 334 ng/mL | C#Cc1cc(CNC(=O)/C=C/c2ccc(C(C)(C)C)cc2N2CCOCC2)cc(F)c1NS(C)(=O)=O [drawing 350, reference compound] | IC50 (vanilloid receptor; [5]): 860 nM; AUC [3]: 706 ng·h/mL; Tmax [3]: 2 h; half-life [3]: 0.932 h
 | 12.8% | 54.0% |  | C#Cc1cc(CNC(=O)/C=C/c2ccc(C(C)(C)C)cc2N2CCOCC2)cc(F)c1NS(C)(=O)=O [drawing 334, reference compound] | IC50 (vanilloid receptor; Table 2, unit inferred, read-out: IC50): 860 nM
510 nM | 10% | 8.0% |  | COCCNc1nc(C(F)(F)F)ccc1/C=C/C(=O)NCc1ccc(NS(C)(=O)=O)c(F)c1 [Example 45, N-(3-Fluoro-4-methanesulfonylamino-benzyl)-3-[2-(2-methoxy-ethylamino)-6-trifluoromethyl-pyridin-3-yl]-acrylamide] | 
500 nM | 0% | 3.2% |  | CCCc1nc(C(F)(F)F)ccc1/C=C/C(=O)NCc1ccc(NS(C)(=O)=O)c(Cl)c1 [Example 253, N-(3-Chloro-4-methanesulfonylamino-benzyl)-3-(2-propyl-6-trifluoromethyl)-pyridin-3-yl-acrylamide] | 
370 nM | 17.0% | 17.0% |  | C#Cc1cc(CNC(=O)/C=C/c2ccc(C(F)(F)F)nc2OCCOC)cc(F)c1NS(C)(=O)=O [Example 75, N-(3-Ethynyl-5-fluoro-4-methanesulfonylamino-benzyl)-3-[2-(2-methoxy-ethoxy)-6-trifluoromethyl-pyridin-3-yl]-acrylamide] | 
52 nM |  |  |  | CCCNc1nc(C(F)(F)F)ccc1/C=C/C(=O)NCc1ccc(NS(C)(=O)=O)c(C)c1 [Example 225, N-(4-Methanesulfonylamino-3-methyl-benzyl)-3-(2-propylamino-6-trifluoromethyl-pyridin-3-yl)-acrylamide] | 
25 nM |  |  |  | CC(C)c1nc(C(F)(F)F)ccc1/C=C/C(=O)N[C@H](C)c1cc(F)c(NS(C)(=O)=O)c(F)c1 [Example 242, (R)—N-[1-(3,5-Difluoro-4-methanesulfonylamino-phenyl)-ethyl]-3-(2-isopropyl-6-trifluoromethyl-pyridin-3-yl)-acrylamide] | 
> 10000 nM |  |  |  | CS(=O)(=O)Nc1ccc(CNC(=O)COc2ccc(C(F)(F)F)nc2)cc1F [Example 32, N-(3-Fluoro-4-methanesulfonylamino-benzyl)-2-(6-trifluoromethyl-pyridin-3-yloxy)-acetamide] | 
550 nM |  |  |  | CCOC(=O)C1CCN(c2nc(C(F)(F)F)ccc2/C=C/C(=O)NCc2ccc(NS(C)(=O)=O)c(F)c2)CC1 [Example 95, N-(3-Fluoro-4-methanesulfonylamino-benzyl)-3-[2-(4-ethoxycarbonyl-piperid-1-yl)-6-trifluoromethyl-pyridin-3-yl]-acrylamide] | 
24 nM |  |  |  | CC(C)Cc1nc(C(F)(F)F)ccc1/C=C/C(=O)N[C@H](C)c1cc(F)c(NS(C)(=O)=O)c(F)c1 [Example 245, (R)—N-[1-(3,5-Difluoro-4-methanesulfonylamino-phenyl)-ethyl]-3-(2-isobutyl-6-trifluoromethyl-pyridin-3-yl)-acrylamide] | 
12 nM |  |  |  | CCCCc1nc(C(F)(F)F)ccc1/C=C/C(=O)N[C@H](C)c1cc(F)c(NS(C)(=O)=O)c(F)c1 [Example 228, (R)-3-(2-Butyl-6-trifluoromethyl-pyridin-3-yl)-N-[1-(3,5-difluoro-4-methanesulfonylamino-phenyl)-ethyl]-acrylamide] | 
88 nM |  |  |  | CCC(C)Nc1nc(C(F)(F)F)ccc1/C=C/C(=O)NCc1cc(F)c(NS(C)(=O)=O)c(C#N)c1 (stereo not drawn) [Example 124, 3-(2-sec-Butylamino-6-trifluoromethyl-pyridin-3-yl)-N-(3-cyano-5-fluoro-4-methanesulfonylamino-benzyl)-acrylamide] | 
